Reference: patent US20090162457A1, “RESVERATROL AND/OR GRAPE LEAF EXTRACT AS I. A. ENDURANCE IMPROVER, ANTI-AGING AGENT, MUSCLE STRENGTH IMPROVER” (KAO CORPORATION, priority 2005, published 2009)

How the values were obtained:
Assay type in all cases: in vivo
[1] = test system: SAM-P1 male mice (senescence accelerated mice); assay: Maximum muscle strength of extensor digitorum longus muscle under electrical stimulation
Description: After the preliminary individual rearing of 13-week-old SAM-P1 male mice (senescence accelerated mice) and SAM-R1 male mice (ordinarily aged mice) for 5 weeks, they were habituated to treadmill running. Then, they were divided into SAM-R1 control group, SAM-P1 control group, SAM-P1 exercise group, SAM-P1 resveratrol group/exercise (each group consisting of 5 mice) They were reared for 13 weeks on a diet prepared in accordance with the formulation shown in Table 9. Exercise at 15 m/min was imposed to each mouse of the exercise group for 30 minutes three times a week during the period of experiment. After rearing for 13 weeks, the mice were sacrificed for dissection. Their extensor digitorum longus muscle was fixed to a transducer (“FORT100”, product of World Precision Instruments, Inc.) in a Krebs solution (aeration condition: 95% oxygen, 5% carbon dioxide) of 37° C. and then, electrically stimulated (at 140 Hz for 0.5 msec), whereby the maximum muscle strength was measured.

Balb/c male mice = assay: Mice maximal swimming time measurement in an adjustable-current swimming pool (endurance-improving/anti-fatigue effect); details: Test 1; for Maximal swimming time: flow rate 7 L/min
Method: An endurance-improving/anti-fatigue effect was evaluated in accordance with the mice maximal swimming time measurement (Reference: Am. J. Physiol. Regul. Integr. Comp. Physiol., 288, 708-715 (2005)) in an adjustable-current swimming pool. The pool used for this test made of transparent acryl (90 cm long×45 cm wide×45 cm deep) was filled with water to the depth of 38 cm and maintained at 34° C. by a heater. The current in the pool was generated by circulating water with a pump (“C-P60H”, product of Hitachi, Ltd.). The flow rate was regulated by opening and closing of a valve of a water flow meter (product of Tokyo Flow Meter Kenkyujo) connected to the pump. The flow rate was monitored by a current meter (“SV-101-25S”, product of Sanko Seimitsu Kogyo). As a test animal, five-week-old Balb/c male mice (Charles River) were used. They were habituated by preliminary rearing for 1 week under a predetermined rearing environment (23±2° C., light period: from 7:00 am to 7:00 pm). For the next one week, training was performed three times a week in order to accustom the mice to swimming (swimming for 30 minutes at a flow rate of 5 L/min on Day 1, and for 30 minutes at a flow rate of 6 L/min on Day 3 and Day 5). […] To prevent a difference between groups in the maximal swimming time, mice were classified into two groups each consisting of 8 mice, that is, a test diet group and control diet group. During this term, maximal swimming time measurement (7 L/min) and training (6 L/min, 30 minutes) were each conducted once a week.

[2] = test system: SAM-P1 male mice (senescence accelerated mice); assay: Energy metabolism at rest: oxygen consumption by breath analysis (Oxymax system)
Method: (§1) After preliminary individual rearing of 13-week-old SAM-P1 male mice (senescence accelerated mice) and SAM-R1 male mice (ordinarily aged mice) for 5 weeks, they were habituated to treadmill running and their maximal running time was measured. The measurement was started after the mice were kept sedentary in the treadmill to accustom them to the environment. The belt speed was started at 10 m/min. The mice were caused to run for 5 minutes on the belt having a speed of 10 m/min, 5 minutes at a speed of 15 m/min, 60 minutes at a speed of […], 60 minutes at a speed of 22 m/min, 60 minutes at a speed of 24 m/min, 60 minutes at a speed of 26 m/min and then at a speed of 28 m/min. […] To avoid a difference in the maximal running time between strains, the mice were divided into three groups, that is, SAM-R1 control group, SAM-P1 control group, and SAM-P1 resveratrol group (each group consisting of 5 to 8 mice). Each mouse was exercised at 15 m/min for 30 minutes three times a week during the period of experiment. The maximal running time of each group was measured after rearing for 8 weeks. In addition, as energy metabolism at rest, oxygen consumption of each group was measured by breath analysis after rearing for 9 weeks. For this analysis, “Oxymax system” (product of Columbus Instruments) equipped with 8 chambers was used. […] From their weights, total muscle weight was determined.

[3] = test system: SAM-P1 male mice (senescence accelerated mice); assay: Maximal running time on treadmill (anti-aging effect, endurance)
Method: as §1

[4] = test system: SAM-P1 male mice (senescence accelerated mice); assay: Total muscle weight (gastrocnemius, soleus, plantaris) per body weight
Method: as §1

## Oc1ccc(C=Cc2cc(O)cc(O)c2)cc1 [Resveratrol, 3,4′,5-trihydroxy-stilbene]
[1]; resveratrol (0.2% in feed) plus exercise, reared for 10 weeks per table title (13 weeks per text), SAM-P1 control 9.8 ± 0.3, SAM-P1 exercise 13.0 ± 1.8
  Maximum muscle strength of extensor digitorum longus muscle: 15.0 ± 1.8 g
[1]; resveratrol-containing feed (0.2%) plus exercise
  Maximum muscle strength compared with SAM-P1 control group (in words): significantly high
Balb/c male mice; after rearing for 10 weeks on diet with 0.2 mass % resveratrol, control diet 31.15 ± 2.57
  Maximal swimming time: 44.80 ± 4.56 min
Balb/c male mice; after rearing for 10 weeks, 0.2 mass % resveratrol in diet
  Maximal swimming time compared with control diet group (in words): significantly extended the maximal swimming time
Balb/c male mice; before rearing (baseline), Balb/c male mice
  Maximal swimming time: 28.50 ± 1.75 min
[2]; after rearing for 9 weeks on feed with 0.2% resveratrol, SAM-P1 control 46.9 ± 1.3
  Oxygen consumption (average for 24 hours): 57.1 ± 4.3 mL/min/kg
[2]; after rearing for 9 weeks, 0.2% resveratrol in feed
  Oxygen consumption compared with SAM-P1 control group (in words): significantly high compared with that of the SAM-P1 control group
[3]; after rearing for 8 weeks on feed with 0.2% resveratrol, SAM-P1 control 100.0 ± 5.8
  Maximal running time: 141.3 ± 19.7 min
[3]; after rearing for 8 weeks, 0.2% resveratrol in feed
  Maximal running time compared with SAM-P1 control group (in words): significantly long compared with that of the SAM-P1 control group
[4]; after rearing for 10 weeks on feed with 0.2% resveratrol, SAM-P1 control 0.64 ± 0.02
  Relative muscle weight (muscle weight per body weight): 0.81 ± 0.07%
[4]; after rearing for 10 weeks, 0.2% resveratrol in feed
  Muscle weight compared with SAM-P1 control group (in words): significantly large compared with that of the SAM-P1 control group
